Results: ChEMBL document CHEMBL4811270, “Nitrile-based peptoids as cysteine protease inhibitors” (Bioorg Med Chem, 2021)

What was measured:
Cruzipain = Cruzipain (Trypanosoma cruzi, UniProt P25779); test: Inhibition of Trypanosoma cruzi cruzain using Z-FR-AMC as substrate by fluorescence assay
Procathepsin L [1] = molecular target: T1, Procathepsin L (Homo sapiens, UniProt P07711); test: Inhibition of recombinant human liver CatL at 10 uM using Z-FR-AMC as substrate by fluorescence assay relative to control
Target sequence in this assay (P07711 114-333 limits assumed): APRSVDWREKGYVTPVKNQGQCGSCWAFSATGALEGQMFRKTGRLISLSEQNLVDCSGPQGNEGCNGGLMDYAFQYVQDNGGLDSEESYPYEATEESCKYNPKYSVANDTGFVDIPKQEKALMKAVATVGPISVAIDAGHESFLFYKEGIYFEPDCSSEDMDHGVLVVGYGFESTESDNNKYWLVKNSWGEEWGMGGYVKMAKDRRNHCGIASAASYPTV

Cathepsin B [2] = molecular target: T2, Cathepsin B (Homo sapiens, UniProt P07858); test: Inhibition of recombinant human liver CatB at 10 uM using Z-FR-AMC as substrate by fluorescence assay relative to control
[3] = molecular target: T3, Cathepsin K (Homo sapiens) (UniProt P43235); test: Inhibition of recombinant human liver CatK at 10 uM using Z-FR-AMC as substrate by fluorescence assay relative to control
T3 sequence (whole entry): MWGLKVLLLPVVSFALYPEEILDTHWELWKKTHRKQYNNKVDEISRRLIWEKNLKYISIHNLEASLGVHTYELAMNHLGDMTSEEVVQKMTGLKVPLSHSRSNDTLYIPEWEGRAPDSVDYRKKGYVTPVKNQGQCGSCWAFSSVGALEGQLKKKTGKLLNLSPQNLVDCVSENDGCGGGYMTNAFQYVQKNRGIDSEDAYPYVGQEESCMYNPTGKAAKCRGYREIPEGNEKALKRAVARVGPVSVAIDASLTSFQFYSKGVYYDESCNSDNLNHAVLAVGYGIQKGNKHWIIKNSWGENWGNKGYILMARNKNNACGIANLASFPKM

Cathepsin S [4] = molecular target: T4, Cathepsin S (Homo sapiens, UniProt P25774); test: Inhibition of recombinant human liver CatS at 10 uM using Z-FR-AMC as substrate by fluorescence assay relative to control
Target sequence in this assay (P25774 115-331 limits assumed): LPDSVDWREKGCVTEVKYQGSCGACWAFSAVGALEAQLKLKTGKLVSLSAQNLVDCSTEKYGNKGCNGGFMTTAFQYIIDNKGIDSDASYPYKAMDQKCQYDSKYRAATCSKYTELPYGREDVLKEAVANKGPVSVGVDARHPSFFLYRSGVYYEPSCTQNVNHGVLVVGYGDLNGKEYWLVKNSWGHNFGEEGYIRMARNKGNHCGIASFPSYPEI

Procathepsin L [5] = molecular target: T1, Procathepsin L; test: Inhibition of recombinant human liver CatL using Z-FR-AMC as substrate by fluorescence assay
Target sequence in this assay (P07711 whole entry): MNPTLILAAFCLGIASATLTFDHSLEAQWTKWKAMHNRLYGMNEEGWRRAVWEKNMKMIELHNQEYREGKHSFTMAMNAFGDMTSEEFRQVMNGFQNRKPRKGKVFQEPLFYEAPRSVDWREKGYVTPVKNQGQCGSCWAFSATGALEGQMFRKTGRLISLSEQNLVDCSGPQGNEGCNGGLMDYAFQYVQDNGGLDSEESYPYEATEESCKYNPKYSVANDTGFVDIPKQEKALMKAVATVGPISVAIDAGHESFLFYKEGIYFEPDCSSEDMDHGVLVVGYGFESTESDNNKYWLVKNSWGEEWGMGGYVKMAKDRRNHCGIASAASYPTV

Cathepsin S [6] = molecular target: T4, Cathepsin S; test: Inhibition of recombinant human liver CatS using Z-FR-AMC as substrate by fluorescence assay
Target sequence in this assay (P25774 whole entry): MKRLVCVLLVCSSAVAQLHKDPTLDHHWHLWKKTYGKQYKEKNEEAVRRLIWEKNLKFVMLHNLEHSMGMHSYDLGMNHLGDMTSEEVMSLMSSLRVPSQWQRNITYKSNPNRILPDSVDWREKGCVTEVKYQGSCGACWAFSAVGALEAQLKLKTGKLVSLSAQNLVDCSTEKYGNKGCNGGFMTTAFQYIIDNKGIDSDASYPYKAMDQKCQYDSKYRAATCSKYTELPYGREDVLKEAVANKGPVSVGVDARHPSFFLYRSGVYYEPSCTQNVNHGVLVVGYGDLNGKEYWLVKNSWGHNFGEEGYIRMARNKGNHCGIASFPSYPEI

[7] = molecular target: Cruzipain (Trypanosoma cruzi) (UniProt P25779); test: Inhibition of Trypanosoma cruzi cruzain at 10 uM using Z-FR-AMC as substrate by fluorescence assay relative to control
Cruzipain (Trypanosoma cruzi), sequence (P25779 123-467 limits assumed): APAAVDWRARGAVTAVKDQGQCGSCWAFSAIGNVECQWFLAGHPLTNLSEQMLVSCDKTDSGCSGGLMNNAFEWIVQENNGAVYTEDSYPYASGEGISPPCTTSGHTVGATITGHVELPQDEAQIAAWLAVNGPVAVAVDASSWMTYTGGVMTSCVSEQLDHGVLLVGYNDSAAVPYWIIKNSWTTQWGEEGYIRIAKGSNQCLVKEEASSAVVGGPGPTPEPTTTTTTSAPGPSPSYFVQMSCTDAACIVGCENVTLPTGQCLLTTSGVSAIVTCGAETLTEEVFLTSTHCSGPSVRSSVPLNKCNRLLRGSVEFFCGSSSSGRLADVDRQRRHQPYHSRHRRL

Cathepsin B [8] = molecular target: T2, Cathepsin B; test: Inhibition of recombinant human liver CatB using Z-FR-AMC as substrate by fluorescence assay
Cathepsin K = molecular target: T5, Cathepsin K (Homo sapiens, UniProt P43235); test: Inhibition of recombinant human liver CatK using Z-FR-AMC as substrate by fluorescence assay
T5 sequence (P43235 whole entry): T3 sequence (whole entry)

Cruzipain, sequence (P25779 whole entry): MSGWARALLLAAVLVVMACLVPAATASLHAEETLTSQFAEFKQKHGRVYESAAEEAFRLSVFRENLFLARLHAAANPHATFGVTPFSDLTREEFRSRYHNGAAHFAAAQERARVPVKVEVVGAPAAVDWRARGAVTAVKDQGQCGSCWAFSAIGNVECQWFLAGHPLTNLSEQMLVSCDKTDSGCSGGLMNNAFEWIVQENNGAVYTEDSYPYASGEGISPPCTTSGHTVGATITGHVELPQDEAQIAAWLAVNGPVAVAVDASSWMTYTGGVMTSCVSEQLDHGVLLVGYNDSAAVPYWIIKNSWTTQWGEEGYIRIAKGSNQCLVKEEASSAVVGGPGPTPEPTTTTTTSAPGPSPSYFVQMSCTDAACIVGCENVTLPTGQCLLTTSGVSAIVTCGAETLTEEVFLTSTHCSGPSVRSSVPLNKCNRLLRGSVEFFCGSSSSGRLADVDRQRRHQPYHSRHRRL

Compound | Ki (Cruzipain) | inhibition (Procathepsin L [1]) | inhibition (Cathepsin B [2]) | inhibition [3] | inhibition (Cathepsin S [4]) | Ki (Procathepsin L [5]) | Ki (Cathepsin S [6]) | inhibition [7] | Ki (Cathepsin B [8]) | Ki (Cathepsin K)
N#CC1(NC(=O)CN(Cc2ccccc2)C(=O)Cc2ccccc2)CC1 | 2.51 µM | 87% | > 95% | 58% | > 95% | – | – | – | – | –
N#CCNC(=O)CN(Cc1ccccc1)C(=O)c1cccc(I)c1 | – | – | 87% | > 95% | – | 6.31 µM | 10 µM | 34% | – | –
Cn1nc(C(C)(C)C)cc1C(=O)N(CC(=O)NCC#N)Cc1cccc(Cl)c1 | 0.158 µM | > 95% | – | > 95% | > 95% | – | – | – | 7.94 µM | –
Cn1nc(C(C)(C)C)cc1C(=O)N(CC(=O)N[C@H](C#N)Cc1ccccc1)Cc1ccccc1 | – | – | 80% | – | 84% | 3.16 µM | – | 87% | – | 0.316 µM
N#CCNC(=O)CN(Cc1ccccc1)S(=O)(=O)c1cccc(Cl)c1 | – | – | > 95% | 68% | – | 2.51 µM | 2 µM | 87% | – | –
Cn1nc(C(C)(C)C)cc1C(=O)N(CC(=O)NC1(C#N)CC1)Cc1ccccc1 | 6.31 µM | 85% | – | 54% | > 95% | – | – | – | 3.98 µM | –
N#CCNC(=O)CN(Cc1ccccc1)C(=O)c1ccc(-c2ccccc2)cc1 | 3.16 µM | – | 66% | 86% | – | 10 µM | 6.31 µM | – | – | –
COc1ccc(-c2ccc(C(=O)N(CC(=O)NCC#N)Cc3ccccc3)cc2)cc1 | 5.01 µM | > 95% | 83% | – | – | – | 0.794 µM | – | – | 2.51 µM
COc1ccc(-c2ccc(C(=O)N(CC(=O)NC3(C#N)CC3)Cc3ccccc3)cc2)cc1 | 10 µM | 68% | 78% | – | – | – | 3.98 µM | – | – | 10 µM
CC(C)(C#N)NC(=O)CN(Cc1ccccc1)C(=O)c1ccccc1 | 6.31 µM | > 95% | 90% | – | – | – | 7.94 µM | – | – | 0.251 µM
N#CCNC(=O)CN(Cc1ccccc1)C(=O)c1ccccc1 | 6.31 µM | – | 85% | > 95% | – | 0.631 µM | 5.01 µM | – | – | –
N#CC1(NC(=O)[C@H](Cc2ccccc2)NC(=O)c2ccccc2)CC1 | 0.2 µM | – | – | – | – | – | – | – | 7.94 µM | –
N#CC1(NC(=O)CN(Cc2ccccc2)C(=O)c2ccc(-c3ccccc3)cc2)CC1 | 0.251 µM | > 95% | – | > 95% | 89% | – | – | – | 3.16 µM | –
Cn1nc(C(C)(C)C)cc1C(=O)N(CC(=O)NCC#N)Cc1ccccc1 | – | 88% | 93% | 58% | 84% | – | – | > 95% | – | –
N#CC1(NC(=O)CN(Cc2ccccc2)C(=O)c2ccccc2)CC1 | 7.94 µM | 82% | 91% | – | – | – | 5.01 µM | – | – | 0.398 µM
